According to paper PMC4821188 (Biological chemistry, 2010):
Where “and” joins values, the source holds several entries; their conditions need not be identical. Equal entries are not always repeated. *: point of attachment. EDDnp = O=[N+]([O-])c1ccc(NCCN*)c([N+](=O)[O-])c1; AMC = Cc1cc(=O)oc2cc(N*)ccc12

Tests used:
Recombinant human furin [1] = target: T1, Recombinant human furin (Homo sapiens, UniProt P09958); format: biochemical; conditions: 4 μM substrate; 10 mM MES, 1 mM CaCl2, 0.01% Triton X-100, pH 7.0, 36.5 °C
T1 sequence (P09958 108-715 limits assumed): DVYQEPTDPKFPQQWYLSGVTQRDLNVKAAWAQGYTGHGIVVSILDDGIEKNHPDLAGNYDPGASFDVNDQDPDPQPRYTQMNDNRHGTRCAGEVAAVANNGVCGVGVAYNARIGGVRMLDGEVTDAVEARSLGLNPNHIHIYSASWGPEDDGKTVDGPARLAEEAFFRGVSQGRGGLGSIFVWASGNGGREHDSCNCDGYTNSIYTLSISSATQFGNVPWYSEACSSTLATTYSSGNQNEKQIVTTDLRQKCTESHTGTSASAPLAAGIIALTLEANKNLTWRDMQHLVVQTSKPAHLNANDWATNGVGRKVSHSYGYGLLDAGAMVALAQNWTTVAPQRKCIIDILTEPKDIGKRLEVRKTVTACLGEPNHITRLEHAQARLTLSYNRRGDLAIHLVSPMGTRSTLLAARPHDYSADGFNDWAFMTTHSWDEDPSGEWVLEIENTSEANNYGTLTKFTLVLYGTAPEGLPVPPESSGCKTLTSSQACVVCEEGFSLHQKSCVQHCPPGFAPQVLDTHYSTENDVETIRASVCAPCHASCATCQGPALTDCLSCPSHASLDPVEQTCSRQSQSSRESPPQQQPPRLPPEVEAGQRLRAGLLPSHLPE

Recombinant human furin [2] = target: T1, Recombinant human furin; format: biochemical; conditions: for Km / kcat / kcat/Km / hydrolysis by furin (result in words, cell spans kcat, Km, kcat/Km and R): pH 7
Kex2 = target: T2, Kex2 (Saccharomyces cerevisiae, UniProt P13134); format: biochemical, S. cerevisiae; conditions: in the absence of Mg^2+
T2 sequence (P13134 114-613 limits assumed): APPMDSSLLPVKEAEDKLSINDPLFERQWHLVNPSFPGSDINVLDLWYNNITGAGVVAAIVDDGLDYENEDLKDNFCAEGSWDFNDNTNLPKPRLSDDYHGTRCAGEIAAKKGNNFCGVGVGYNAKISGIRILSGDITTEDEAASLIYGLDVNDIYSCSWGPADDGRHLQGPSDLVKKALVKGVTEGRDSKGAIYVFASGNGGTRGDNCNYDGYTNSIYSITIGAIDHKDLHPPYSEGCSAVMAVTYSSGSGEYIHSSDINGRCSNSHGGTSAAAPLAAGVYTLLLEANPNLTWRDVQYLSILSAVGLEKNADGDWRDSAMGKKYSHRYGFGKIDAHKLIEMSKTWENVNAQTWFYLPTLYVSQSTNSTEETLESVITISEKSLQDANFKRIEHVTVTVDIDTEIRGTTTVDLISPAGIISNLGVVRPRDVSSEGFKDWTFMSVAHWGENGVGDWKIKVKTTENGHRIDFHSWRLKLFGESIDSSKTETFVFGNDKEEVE

Recombinant human furin [3] = target: T1, Recombinant human furin; format: biochemical

| Molecule | effect on the rate of hydrolysis of Abz-[…]-Q-EDDnp by furin (Recombinant human furin [1]) | R: relative kcat/Km values in presence vs. absence of MgCl2 (Recombinant human furin [2]) | Km (Recombinant human furin [2]) | kcat (Recombinant human furin [2]) | kcat/Km (Recombinant human furin [2]) | kcat/Km for hydrolysis by kex2 (Kex2) [M⁻¹ s⁻¹] | pK1 of pH-profile of furin hydrolysis (Recombinant human furin [3]) | hydrolysis by furin (result in words, cell spans kcat, Km, kcat/Km and R) (Recombinant human furin [2]) |
| --- | --- | --- | --- | --- | --- | --- | --- | --- |
| [Cl-].[K+] [KCl] | increased the rate of hydrolysis |  |  |  |  |  |  |  |
| [Cl-].[Cl-].[Mg+2] [Mg^2+, magnesium chloride] | significant increase |  |  |  |  |  |  |  |
| [Cl-].[Na+] [NaCl] | no effect |  |  |  |  |  |  |  |
| Abz-GIRRKRSVSHQ-EDDnp [compound 19] |  | 0.9 | 0.42 µM and 0.39 µM | 29.6 (30.3) s^−1 | 70547 (77100) (mM.s)^−1 |  |  |  |
| Abz-LDKR↓EAE-Q-EDDnp |  |  |  |  |  | 353000 |  |  |
| Abz-RERRRKKR↓GLFG-Q-EDDnp [peptide 48] |  | 79 |  | 12.3(2.6) s^−1 | 123000 (1555) (mM.s)^−1 |  |  |  |
| Abz-RKRSRRQVNTQ-EDDnp [peptide 1] |  | 44 |  | 11.3 (8.4) s^−1 | 56300 (1291) (mM.s)^−1 |  | 5.46 and 5.67 |  |
| Abz-RRRKKR↓GLFG-Q-EDDnp [compound 31] |  |  | 15.5 µM | 5.0 s⁻¹ | 322 mM/s |  |  |  |
| Abz-SGRSRRAIDLQ-EDDnp [peptide 10] |  | 3.0 |  | 6.2 (4.3) s^−1 | 15923 (5328) (mM.s)^−1 |  |  |  |
| Abz-SRRHKR↓FAGV-Q-EDDnp (Abz-SRRHKRFAGVQ-EDDnp) [peptide 32] |  | 60 |  | 2.4 (0.21) s^−1 | 33857 (559) (mM.s)^−1 |  | 5.27 and 5.42 |  |
| Abz-YKR↓EAD-Q-EDDnp |  |  |  |  |  | 7.939e+06 |  |  |
| Ac-RVRR-{AMC} [compound 38, reference compound] |  | 0.1 |  | 0.59 (0.98) s^−1 | 120 (1139) (mM.s)^−1 |  |  |  |
| GQRKKR↓ALDT [compound 40] |  | 0.06 |  | 3.6 (3.9) s^−1 | 829 (14130) (mM.s)^−1 |  |  |  |
| HHRQRR↓SVSI [compound 37] |  | 0.1 |  | 28.9 (39.5) s^−1 | 9031 (116088) (mM.s)^−1 |  |  |  |
| HKREKR↓QAKH [compound 39] |  | 0.1 |  | 6.3 (6.9) s^−1 | 2354 (17734) (mM.s)^−1 |  |  |  |
| HNRTKR↓STDG [compound 23] |  | 28 | 0.95 µM and 0.87 µM | 7.8 (0.26) s^−1 | 8210 (289) (mM.s)^−1 |  |  |  |
| HRRDKR↓SVAL [compound 17] |  | 0.6 |  | 12.7 (9.5) s^−1 | 23091 (36615) (mM.s)^−1 |  |  |  |
| HRREKR↓SVAL [compound 16] |  | 0.7 | 0.2 µM and 0.22 µM | 7.6 (12.2) s^−1 | 38300 (55636) (mM.s)^−1 |  |  |  |
| HRRQKR↓SVAL [compound 14] |  | 1.2 | 0.37 µM and 0.28 µM | 14.9 (9.2) s^−1 | 40270 (32431) (mM.s)^−1 |  |  |  |
| KIRRRR↓DVVD [compound 26] |  | 8.9 | 0.05 µM and 0.1 µM | 3.1 (0.60) s^−1 | 53448 (6000) (mM.s)^−1 |  |  |  |
| KKRKRR↓FLGF [compound 33] |  | 4.2 |  | 1.1 (0.64) s^−1 | 2173 (512) (mM.s)^−1 |  |  |  |
| KRRQRR↓RPPQ [compound 21] |  |  |  |  |  |  |  | Slow Hydrolysis |
| LKRRRR↓DTQQ [compound 30] |  | 0.6 |  | 6.7 (0.61) s^−1 | 1303 (2184) (mM.s)^−1 |  |  |  |
| LRRRRR↓DAGN [compound 25] |  | 9.9 | 3.6 µM and 3.3 µM | 12.3 (1.1) s^−1 | 3455 (348) (mM.s)^−1 |  |  |  |

| Molecule | effect on the rate of hydrolysis of Abz-[…]-Q-EDDnp by furin (Recombinant human furin [1]) | R: relative kcat/Km values in presence vs. absence of MgCl2 (Recombinant human furin [2]) | Km (Recombinant human furin [2]) | kcat (Recombinant human furin [2]) | kcat/Km (Recombinant human furin [2]) | kcat/Km for hydrolysis by kex2 (Kex2) [M⁻¹ s⁻¹] | pK1 of pH-profile of furin hydrolysis (Recombinant human furin [3]) | hydrolysis by furin (result in words, cell spans kcat, Km, kcat/Km and R) (Recombinant human furin [2]) |
| --- | --- | --- | --- | --- | --- | --- | --- | --- |
| LTRQRR↓SLLP [compound 8] |  | 1.3 | 0.9 µM and 0.64 µM | 3.3 (1.8) s^−1 | 3510 (2708) (mM.s)^−1 |  |  |  |
| MMRHRR↓ELQR [compound 7] |  | 1.7 |  | 10.3 (16.2) s^−1 | 23409 (13508) (mM.s)^−1 |  |  |  |
| NLRRRR↓DLVD [compound 28] |  | 7.2 |  | 3.5 (2.0) s^−1 | 10606 (1470) (mM.s)^−1 |  |  |  |
| NTRSRR↓SVPV [compound 29] |  |  |  |  |  |  |  | Slow Hydrolysis |
| QIRAKR↓ELSK [compound 2] |  | 6.9 |  | 6.7 (9.7) s^−1 | 5583 (808) (mM.s)^−1 |  |  |  |
| QSRRRR↓QTPP [compound 41] |  | 0.05 |  | 3.4 (6.3) s^−1 | 1547 (31067) (mM.s)^−1 |  |  |  |
| RKRRKR↓ELET [compound 27] |  | 8.5 |  | 4.3 (0.23) s^−1 | 1400 (164) (mM.s)^−1 |  |  |  |
| RNRQKR↓FVLS [compound 42] |  |  | 0.59 µM | 0.20 s⁻¹ | 337 mM/s |  |  |  |
| RRRAKR↓SPKH [compound 35] |  | 6.2 |  | 5.3 (8.7) s^−1 | 4383 (710) (mM.s)^−1 |  |  |  |
| RRRDKR↓SVAL [compound 15] |  | 0.8 | 0.41 µM and 0.39 µM | 12.2 (14.6) s^−1 | 29658 (37505) (mM.s)^−1 |  |  |  |
| RRRKKR↓GLSG [compound 45] |  | 38 |  | 6.7 (2.4) s^−1 | 30500 (797) (mM.s)^−1 |  |  |  |
| RRRKKR↓SLFG [compound 46] |  | 54 |  | 7.6 (1.0) s^−1 | 33043 (606) (mM.s)^−1 |  |  |  |
| RRRKKR↓SLSG [compound 47] |  | 14 |  | 4.5(0.92) s^−1 | 18833 (1333) (mM.s)^−1 |  |  |  |
| SIRHKR↓EPSV [compound 20] |  | 0.9 | 2.4 µM and 2.8 µM | 1.6 (2.1) s^−1 | 646 (729) (mM.s)^−1 |  |  |  |
| SKRSRR↓SVSV [compound 13] |  | 1.5 | 0.49 µM and 0.41 µM | 18.3 (10.5) s^−1 | 37347(25362) (mM.s)^−1 |  |  |  |
| SRRKRR↓DVTP [compound 6] |  | 3.2 |  | 9.9 (9.2) s^−1 | 66000 (20467) (mM.s)^−1 |  |  |  |
| SRRKRR↓SAST [compound 22] |  | 38 |  | 11.1 (10.0) s^−1 | 76232 (1992) (mM.s)^−1 |  |  |  |
| SRRSRR↓SLTV [compound 12] |  |  |  | 6.2 (4.3) s^−1 | 15923 (5328) (mM.s)^−1 |  |  |  |
| SSRHRR↓ALDT [compound 36] |  | 0.3 |  | 7.1 (5.6) s^−1 | 1707 (6488) (mM.s)^−1 |  |  |  |
| THRTRR↓STSD [compound 24] |  | 11 | 1.9 µM and 1.2 µM | 8.1 (0.44) s^−1 | 4128 (370) (mM.s)^−1 |  |  |  |
| TRRFRR↓SITE [compound 34] |  | 1.3 | 0.53 µM and 0.58 µM | 19.8 (16.4) s^−1 | 37358 (28362) (mM.s)^−1 |  |  |  |
| VQREKR↓AVGI [compound 18] |  | 3.2 | 2.1 µM and 2.8 µM | 2.7 (1.2) s^−1 | 1290 (407) (mM.s)^−1 |  |  |  |
| VRRRRR↓YALS [compound 43] |  |  | 3.14 µM | 0.60 s⁻¹ | 193 mM/s |  |  |  |
| VVRVRR↓ELLP [compound 5] |  | 3.8 |  | 16.6 (12.2) s^−1 | 13071 (3466) (mM.s)^−1 |  |  |  |
